According to patent publication US5189159A, “8a-AZA-8a-homoerythromycin cyclic iminoethers” (Merck & Co., Inc., priority 1992, dated 1993):
Values after ≈ are worked out from the molar mass of the structure shown.

Key:
[1] = system: Enterococcus faecalis MB 5407; experiment: MIC, liquid turbidimetric microtiter method; assay type: cell-based; conditions: MB5407, broth media
Source text: (§1) The compounds of formula (II) show antibacterial activity against a range of aerobic Gram positive and negative bacteria, as shown in the following Table. The assay employs a liquid turbidimetric microtiter method for determination of the minimum inhibitory concentration (MIC) in broth media. […] The MIC is generally not an absolute value but rather a concentration range that falls within a two-fold dilution limit. Generally twelve two-fold dilutions of the test compound are employed with the initial concentration set at 128 mcg/ml.

[2] = system: Enterococcus faecium MB 5416; experiment: MIC, liquid turbidimetric microtiter method; assay type: cell-based; conditions: MB5416, broth media
Source text: as §1

Escherichia coli MB 2884 = experiment: MIC, liquid turbidimetric microtiter method; assay type: cell-based; conditions: MB2884, broth media
Source text: as §1

Escherichia coli MB 4926 = experiment: MIC, liquid turbidimetric microtiter method; assay type: cell-based; conditions: MB4926, broth media
Source text: as §1

[3] = system: Klebsiella pneumoniae MB 4005; experiment: MIC, liquid turbidimetric microtiter method; assay type: cell-based; conditions: MB4005, broth media
Source text: as §1

[4] = system: Pseudomonas stutzeri MB 1231; experiment: MIC, liquid turbidimetric microtiter method; assay type: cell-based; conditions: Stutzerimonas stutzeri, MB1231, broth media
Source text: as §1

[5] = system: Staphylococcus aureus MB 2865; experiment: MIC, liquid turbidimetric microtiter method; assay type: cell-based; conditions: MB2865, broth media
Source text: as §1

[6] = system: Staphylococcus epidermidis MB 5414; experiment: MIC, liquid turbidimetric microtiter method; assay type: cell-based; conditions: MB5414, broth media
Source text: as §1

[7] = system: Staphylococcus haemolyticus MB 5412; experiment: MIC, liquid turbidimetric microtiter method; assay type: cell-based; conditions: MB5412, broth media
Source text: as §1

[8] = system: Steptococcus pneumoniae CL 2883; experiment: MIC, liquid turbidimetric microtiter method; assay type: cell-based; conditions: broth media
Source text: as §1

[9] = system: Streptococcus agalactiae CL 1343; experiment: MIC, liquid turbidimetric microtiter method; assay type: cell-based; conditions: CL1343, broth media
Source text: as §1

[10] = system: Streptococcus pyogenes MB 2874; experiment: MIC, liquid turbidimetric microtiter method; assay type: cell-based; conditions: MB2874, broth media
Source text: as §1

[11] = system: Streptococcus pyogenes MB 5406; experiment: MIC, liquid turbidimetric microtiter method; assay type: cell-based; conditions: MB5406, broth media
Source text: as §1

[12] = system: Streptococcus viridans CL 2943; experiment: MIC, liquid turbidimetric microtiter method; assay type: cell-based; conditions: CL2943, broth media
Source text: as §1

[13] = system: Yersinia enterocoltica CL 1598; experiment: MIC, liquid turbidimetric microtiter method; assay type: cell-based; conditions: CL1598, broth media
Source text: as §1

[14] = isomerization / stability of 9,12-epoxy isomers; assay type: physicochemical
Source text: As previously noted, Beckmann rearrangement of oxime (III) under anhydrous conditions leads to a product mixture comprised of the 6,9- and 9,12-bridged iminoethers (VI) and (VII). The 9,12-bridged product, which is formed by internal trapping of the intermediate nitrilium species by the hydroxyl group at C-12, is initially isolated as a mixture of major and minor forms that are isomeric about the imino double bond. The initial mixture of isomers equilibrates at room temperature, both in solution or on storing as a crude foam, to approximately a 1:1 mixture of isomers. The first-formed, major isomer can be isolated from the mixture by crystallization from nitromethane solution.
A solution of the mixture of 9,12-epoxy isomers in nitromethane (2 mL) deposited a large, crystalline mass on standing at room temperature for several days. The mixture was diluted with nitromethane (10 mL) and filtered to remove the solid portion, which was washed with nitromethane (2 mL) and dried under high vacuum. The white solid thus obtained (0.9 g) was shown by ^1 H NMR spectroscopy to be the major 9,12-epoxy isomer which is initially formed in the Beckmann rearrangement reaction.

SMILES | MIC [1] [µg/mL] | MIC [2] [µg/mL] | MIC (Escherichia coli MB 2884) [µg/mL] | MIC (Escherichia coli MB 4926) [µg/mL] | MIC [3] [µg/mL] | MIC [4] [µg/mL] | MIC [5] [µg/mL] | MIC [6] [µg/mL] | MIC [7] [µg/mL] | MIC [8] [µg/mL] | MIC [9] [µg/mL] | MIC [10] [µg/mL] | MIC [11] [µg/mL] | MIC [12] [µg/mL] | MIC [13] [µg/mL] | solid state stability [14]
CC[C@H]1OC(=O)[C@H](C)[C@@H](O[C@H]2C[C@@](C)(OC)[C@@H](O)[C@H](C)O2)[C@H](C)[C@@H](O[C@@H]2O[C@H](C)C[C@H](N(C)C)[C@H]2O)[C@](C)(O)C[C@@H](C)N=C2O[C@@]1(C)[C@H](O)[C@H]2C [(VII), 9-Deoxo-12-deoxy-9,12-epoxy-8a,9-didehydro-8a-aza-8a-homoerythromycin A] | > 128 | 16 (≈ 21.9 µM) | 128 (≈ 175 µM) | 32 (≈ 43.8 µM) | > 128 | 2 (≈ 2.74 µM) | 16 (≈ 21.9 µM) | 16 (≈ 21.9 µM) | 32 (≈ 43.8 µM) | 4 (≈ 5.47 µM) | 4 (≈ 5.47 µM) | 2 (≈ 2.74 µM) | > 128 | 4 (≈ 5.47 µM) |  | 
CC[C@H]1OC(=O)[C@H](C)[C@@H](O[C@H]2C[C@@](C)(OC)[C@@H](O)[C@H](C)O2)[C@H](C)[C@@H](O[C@@H]2O[C@H](C)C[C@H](N(C)C)[C@H]2O)[C@@]2(C)C[C@@H](C)N=C(O2)[C@H](C)[C@@H](O)[C@]1(C)O [(VI), 9-Deoxo-6-deoxy-6,9-epoxy-8a,9-didehydro-8a-aza-8a-homoerythromycin A] | 32 (≈ 43.8 µM) | 8 (≈ 10.9 µM) | 128 (≈ 175 µM) | 8 (≈ 10.9 µM) | > 128 | 0.5 (≈ 0.684 µM) | 16 (≈ 21.9 µM) | 32 (≈ 43.8 µM) | 8 (≈ 10.9 µM) | 0.5 (≈ 0.684 µM) | 1 (≈ 1.37 µM) | 1 (≈ 1.37 µM) | 128 (≈ 175 µM) | 16 (≈ 21.9 µM) | 128 (≈ 175 µM) | 
CC[C@H]1OC(=O)[C@H](C)[C@@H](O[C@H]2C[C@@](C)(OC)[C@@H](O)[C@H](C)O2)[C@H](C)[C@@H](O[C@@H]2O[C@H](C)C[C@H](N(C)C)[C@H]2O)[C@](C)(O)C[C@@H](C)N=C2O[C@@]1(C)[C@H](O)[C@H]2C (single isomer, unassigned; isomer 9) [crystalline isomer, 9-deoxo-12-deoxy-9,12-epoxy-8a,9-didehydro-8a-aza-8a-homoerythromycin A] |  |  |  |  |  |  |  |  |  |  |  |  |  |  |  | stable in the solid state
